The values below are quoted from earlier work in US20230382903A1, “SMALL MOLECULE MODULATORS OF GP130 SIGNALING PATHWAYS, TOPICAL FORMULATIONS AND METHOD OF USE THEREOF” (CarthroniX, Inc., priority 2020, published 2023).

One data set concerns the target T1, gp130 (Homo sapiens, UniProt P40189).
T1 sequence (P40189 23-918): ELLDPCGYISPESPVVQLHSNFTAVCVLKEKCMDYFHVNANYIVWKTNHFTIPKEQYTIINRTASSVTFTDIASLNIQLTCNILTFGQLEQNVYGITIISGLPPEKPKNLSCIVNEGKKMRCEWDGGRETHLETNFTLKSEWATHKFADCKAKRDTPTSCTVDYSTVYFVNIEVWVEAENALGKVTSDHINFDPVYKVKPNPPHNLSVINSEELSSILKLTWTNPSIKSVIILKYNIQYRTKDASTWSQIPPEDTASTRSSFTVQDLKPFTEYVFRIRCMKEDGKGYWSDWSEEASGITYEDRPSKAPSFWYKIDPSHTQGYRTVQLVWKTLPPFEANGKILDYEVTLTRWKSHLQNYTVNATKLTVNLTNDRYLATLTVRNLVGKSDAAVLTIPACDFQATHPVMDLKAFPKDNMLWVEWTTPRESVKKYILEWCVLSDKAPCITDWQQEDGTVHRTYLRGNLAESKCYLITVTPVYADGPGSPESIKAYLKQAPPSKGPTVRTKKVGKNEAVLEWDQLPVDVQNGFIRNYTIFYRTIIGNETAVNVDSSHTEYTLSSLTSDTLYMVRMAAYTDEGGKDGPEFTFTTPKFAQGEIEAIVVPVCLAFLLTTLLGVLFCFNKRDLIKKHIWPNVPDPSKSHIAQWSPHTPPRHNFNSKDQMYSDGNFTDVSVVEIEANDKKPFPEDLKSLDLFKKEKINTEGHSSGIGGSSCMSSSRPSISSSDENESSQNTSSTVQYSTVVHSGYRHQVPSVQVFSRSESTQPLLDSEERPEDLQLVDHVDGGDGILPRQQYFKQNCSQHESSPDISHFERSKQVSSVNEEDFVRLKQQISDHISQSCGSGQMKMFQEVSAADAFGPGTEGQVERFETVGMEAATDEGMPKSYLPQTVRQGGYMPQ

The next data set has as its system cartilage degeneration. Conditions: rat model of OA.

`Brc1ccc(Nc2nc(-c3ccccc3)cs2)cc1` [RCGD 423]: the “interaction with gp130” value on gp130 (in vitro) is “interacts with the extracellular region of gp130”. On gp130 (ligand-independent), the “formation of gp130 homodimers” value is listed as “promotes the formation of active, ligand-independent gp130 homodimers”. Also, the “prevention of cartilage degeneration” value in the data set on cartilage degeneration is given as “remarkable ability to prevent cartilage degeneration”.
